The values that follow come from patent US10206398B2, “Five-membered C-N-attached aryl sulphide and aryl sulphoxide derivatives as pesticides” (BAYER CROPSCIENCE AKTIENGESELLSCHAFT, priority 2014, dated 2019).

Values joined by “and” are separate entries in the source; they are usually repeats but may differ in a detail not shown here. Equal entries are not always repeated. Where two headings read alike, the source gives them in different places.

One data set has as its system Meloidogyne incognita. In words: Meloidogyne incognita - test. It counts as in vivo. Conditions: 20 ppm, lettuce, after 14 days. As to the method: 2. Meloidogyne incognita—Test Solvent: 125.0 parts by weight of acetone To produce a suitable preparation of active compound, 1 part by weight of active compound is mixed with the stated amount of solvent and the concentrate is diluted with water to the desired concentration. Vessels are filled with sand, active compound solution, an egg/larvae suspension of the southern root-knot nematode (Meloidogyne incognita) and lettuce seeds. The lettuce seeds germinate and the plants develop. The galls develop on the roots. After 14 days, the nematicidal efficacy in % is determined by the formation of galls. 100% means that no galls were found; 0% means that the number of galls on the treated plants corresponds to the untreated control.

The nature of data set [1]: log P determination by HPLC on reversed-phase columns (C 18), analogous to OECD Guideline 117. It counts as physicochemical. The settings on record: for chromatographic logP: reversed-phase HPLC column (C 18); for logP[a]: method [a]; for logP[b]: method [b]. The protocol:
The log P values were determined analogously to OECD Guideline 117 (EC Directive 92/69/EEC) by HPLC (high-performance liquid chromatography) using reversed-phase columns (C 18), by the following methods: [a] The LC-MS determination in the acidic range was effected at pH 2.7 with 0.1% aqueous formic acid and acetonitrile (contains 0.1% formic acid) as eluents; linear gradient from 10% acetonitrile to 95% acetonitrile. log P[a] is also referred to as log P(HCOOH). [b] LC-MS determination in the neutral range was effected at pH 7.8 with 0.001 molar aqueous ammonium hydrogencarbonate solution and acetonitrile as eluents; linear gradient from 10% acetonitrile to 95% acetonitrile. log P[b] is also referred to as log P(neutral). Calibration is effected with solutions of a homologous series of unbranched alkan-2-ones (having 3 to 16 carbon atoms) with known log P values (log P values determined on the basis of the retention times by linear interpolation between two successive alkanones).

The next data set deals with Tetranychus urticae. In words: Tetranychus urticae - spray test, OP-resistant (bean leaf discs, 6 days). Conditions: 500 g/ha, after 6 days. It counts as in vivo. As to the method: 5. Tetranychus urticae—Spray Test, OP-Resistant
Solvent: 78.0 parts by weight of acetone
• 1.5 parts by weight of dimethylformamide Emulsifier: alkylaryl polyglycol ether
To produce a suitable preparation of active compound, 1 part by weight of active compound is dissolved using the stated parts by weight of solvent and made up with water containing an emulsifier concentration of 1000 ppm until the desired concentration is attained. To produce further test concentrations, the preparation is diluted with emulsifier-containing water.
Discs of bean leaves (Phaseolus vulgaris) infested with all stages of the greenhouse red spider mite (Tetranychus urticae) are sprayed with an active compound preparation of the desired concentration.
After 6 days, the efficacy in % is determined. 100% means that all the spider mites have been killed; 0% means that no spider mites have been killed.

For `Cc1cc(F)c(N2C(=O)CN(C(=O)N3CCOCC3)C2=O)cc1SCC(F)(F)F` [Ex. No. 122, 3-[2-Fluoro-4-methyl-5-(2,2,2-trifluoroethylsulphanyl)phenyl]-1-(morpholine-4-carbonyl)imidazolidine-2,4-dione], in the data set on Meloidogyne incognita, the “nematicidal efficacy (formation of galls)” value amounted to 90%. Also, the chromatographic logP in data set [1] (pH 2.7, HPLC, acidic range, pH 2.7, 0.1% aqueous formic acid and acetonitrile, read-out: log P(HCOOH)) came out at 2.61; in data set [1] (pH 2.7, method [a], read-out: logP[a]) it was 2.58; in data set [1] (pH 7.8, HPLC, neutral range, pH 7.8, 0.001 molar aqueous ammonium hydrogencarbonate and acetonitrile, read-out: log P(neutral)), 2.58; in data set [1] (pH 7.8, method [b], read-out: logP[b]), 2.62. Further, the pest or weed control at 500 g/ha in the data set with Tetranychus urticae (Tetranychus urticae, foliar, 144 h, read-out: efficacy (spider mites killed)) was found to be 100%.
In the case of `Cc1cc(C)c(N2C(=O)CN(C(=O)NC(C)(C)C)C2=O)cc1SCC(F)(F)F` [compound 33], in data set [1], the “logP[a]” value worked out at 3.86 and the “logP[b]” value is 3.89. Further, the “efficacy (spider mites killed)” value in the data set with Tetranychus urticae was found to be 100%.
For the compound `Cc1cc(C)c(N2C(=O)CN(C(=O)NCC(C)C)C2=O)cc1SCC(F)(F)F` [compound 34], in data set [1], the “logP[a]” value is 3.80 and the “logP[b]” value is on record as 3.69. For the same compound, the “efficacy (spider mites killed)” value in the data set on Tetranychus urticae is 100%.
The like results for `Cc1cc(C)c([S+]([O-])CC(F)(F)F)cc1N1C(=O)CN(C(=O)NC(C)(C)C)C1=O` (stereo not drawn) [compound 40] were, in that order, 2.90, 2.83 and 100%.
On the same counts, the results for `Cc1cc(F)c(N2C(=O)CN(C(=O)Nc3cccc(Cl)c3)C2=O)cc1SCC(F)(F)F` [compound 45] are 4.23, 4.16 and 100%.
The like results for `Cc1cc(C)c(N2C(=O)CN(C(=O)NC3CC3)C2=O)cc1SCC(F)(F)F` [compound 49] were, in that order, 1.36, 2.81 and 100%.
`CCNC(=O)N1CC(=O)N(c2cc(SCC(F)(F)F)c(C)cc2Cl)C1=O` [compound 51]: in data set [1], the “logP[a]” value stood at 3.19 and the “logP[b]” value is on record as 3.13. In addition, in the data set with Tetranychus urticae, the “efficacy (spider mites killed)” value was found to be 100%.
Take `Cc1cc(Cl)c(N2C(=O)CN(C(=O)NCC(C)C)C2=O)cc1SCC(F)(F)F` [compound 52]: in data set [1], the “logP[a]” value is given as 3.93 and the “logP[b]” value is given as 3.78. Besides, in the data set on Tetranychus urticae, the “efficacy (spider mites killed)” value worked out at 100%.
On to `Cc1cc(C)c(N2C(=O)CN(C(=O)Nc3cccc(CC(F)(F)F)c3)C2=O)cc1SCC(F)(F)F` [compound 55], for which, in data set [1], the “logP[a]” value is 4.43 and the “logP[b]” value is on record as 4.35. The “efficacy (spider mites killed)” value with Tetranychus urticae was 90%.
As for `Cc1cc(Cl)c(N2C(=O)CN(C(=O)NCc3ccccc3)C2=O)cc1SCC(F)(F)F` [compound 57], in data set [1], the “logP[a]” value was 3.81 and the “logP[b]” value turned out to be 3.61. The “efficacy (spider mites killed)” value in the data set on Tetranychus urticae was 100%.
On the same counts, the results for `Cc1cc(Cl)c(N2C(=O)CN(C(=O)Nc3cccc(CC(F)(F)F)c3)C2=O)cc1SCC(F)(F)F` [compound 58] are 4.51, 4.38 and 100%.
As to `Cc1cc(Cl)c(N2C(=O)CN(C(=O)Nc3cccc(Cl)c3)C2=O)cc1SCC(F)(F)F` [compound 59], in data set [1], the “logP[a]” value came to 4.46 and the “logP[b]” value is 4.28. Also, the “efficacy (spider mites killed)” value in the data set with Tetranychus urticae was 100% and 90%.
As to `Cc1cc(C)c([S+]([O-])CC(F)(F)F)cc1N1C(=O)CN(C(=O)NC2CC2)C1=O` (stereo not drawn) [compound 60], in data set [1], the “logP[a]” value was determined as 2.24 and the “logP[b]” value amounted to 2.17. For the same compound, the “efficacy (spider mites killed)” value in the data set on Tetranychus urticae turned out to be 100%.
On to `Cc1cc(C)c([S+]([O-])CC(F)(F)F)cc1N1C(=O)CN(C(=O)NCC(F)(F)F)C1=O` (stereo not drawn) [compound 61], for which, in data set [1], the “logP[a]” value is recorded as 2.54 and the “logP[b]” value was found to be 2.47. For the same compound, the “efficacy (spider mites killed)” value in the data set on Tetranychus urticae is given as 100%.
Regarding `CCNC(=O)N1CC(=O)N(c2cc([S+]([O-])CC(F)(F)F)c(C)cc2Cl)C1=O` (stereo not drawn) [compound 64], in data set [1], the “logP[a]” value is 2.23 and the “logP[b]” value came out at 2.24. Besides, the “efficacy (spider mites killed)” value in the data set on Tetranychus urticae was 100%.
On to `COCCNC(=O)N1CC(=O)N(c2cc(SCC(F)(F)F)c(C)cc2F)C1=O` [compound 66], for which, in data set [1], the “logP[a]” value turned out to be 2.77 and the “logP[b]” value stood at 2.76. For the same compound, the “efficacy (spider mites killed)” value in the data set on Tetranychus urticae stood at 100%.
On to `Cc1cc(F)c(N2C(=O)N(C(=O)NCC(C)C)C(C)(C)C2=O)cc1SCC(F)(F)F` [compound 76], for which, in data set [1], the “logP[a]” value is on record as 4.51 and the “logP[b]” value is on record as 4.42. Further, in the data set on Tetranychus urticae, the “efficacy (spider mites killed)” value was 100% and 90%.
Turning to `Cc1cc(F)c(N2C(=O)N(C(=O)NCc3ccccc3)C(C)(C)C2=O)cc1SCC(F)(F)F` [compound 77], in data set [1], the “logP[a]” value worked out at 4.37 and the “logP[b]” value was determined as 4.33. Further, the “efficacy (spider mites killed)” value with Tetranychus urticae is on record as 100%.
On the same counts, the results for `Cc1cc(C)c(N2C(=O)CN(C(=O)NCc3ccccc3)C2=O)cc1SCC(F)(F)F` [compound 92] are 3.75, 3.66 and 90%.
Regarding `Cc1cc(Cl)c(N2C(=O)CN(C(=O)Nc3ccc(F)cc3)C2=O)cc1SCC(F)(F)F` [compound 94], in data set [1], the “logP[a]” value worked out at 4.05 and the “logP[b]” value was determined as 3.96. Moreover, in the data set with Tetranychus urticae, the “efficacy (spider mites killed)” value was 100%.
Regarding `Cc1cc(F)c(N2C(=O)CN(C(=S)NCC(F)(F)F)C2=O)cc1SCC(F)(F)F` [compound 102], in data set [1], the “logP[a]” value was found to be 3.71 and the “logP[b]” value came to 3.84. For the same compound, in the data set with Tetranychus urticae, the “efficacy (spider mites killed)” value is given as 100%.
For the compound `O=C(NC1CC1)N1CC(=O)N(c2cc(SCC(F)(F)F)c(Cl)cc2Cl)C1=O` [compound 104], in data set [1], the “logP[a]” value came out at 3.3 and the “logP[b]” value was determined as 3.37. The “efficacy (spider mites killed)” value with Tetranychus urticae amounted to 100%.
On the same counts, the results for `CC(C)CNC(=O)N1CC(=O)N(c2cc(SCC(F)(F)F)c(Cl)cc2Cl)C1=O` [compound 105] are 3.91, 3.99 and 100%.
`O=C(Nc1cccc(Cl)c1)N1CC(=O)N(c2cc(SCC(F)(F)F)c(Cl)cc2Cl)C1=O` [compound 109]: in data set [1], the “logP[a]” value stood at 4.49 and the “logP[b]” value is reported as 4.56. The “efficacy (spider mites killed)” value with Tetranychus urticae amounted to 90%.
On the same counts, the results for `O=C(Nc1cccc(C(F)(F)F)c1)N1CC(=O)N(c2cc(SCC(F)(F)F)c(Cl)cc2Cl)C1=O` [compound 110] are 4.56, 4.61 and 100%.
The like results for `Cc1cc(F)c(N2C(=O)CN(C(=O)N3CCN(C)CC3)C2=O)cc1SCC(F)(F)F` [compound 123] were, in that order, 2.5, 1.51 and 100%.
On to `Cc1cc(F)c(N2C(=O)CN(C(=O)N3CCN(C)CC3)C2=O)cc1[S+]([O-])CC(F)(F)F` (stereo not drawn) [compound 127], for which, in data set [1], the “logP[a]” value was 1.72 and the “logP[b]” value is on record as 1.61. Also, the “efficacy (spider mites killed)” value in the data set on Tetranychus urticae is 100%.
With `Cc1cc(F)c(N2C(=O)CN(C(=O)N3CCS(=O)(=O)CC3)C2=O)cc1SCC(F)(F)F` [compound 128], the “nematicidal efficacy (formation of galls)” value in the data set on Meloidogyne incognita stood at 100%. In addition, in data set [1], the “logP[a]” value amounted to 2.4 and the “logP[b]” value was 2.44.
Turning to `Cc1cc(F)c(N2C(=O)CN(C(=O)N(C)C)C2=O)cc1[S+]([O-])CC(F)(F)F` (stereo not drawn) [compound 133], in data set [1], the “logP[a]” value was found to be 1.75 and the “logP[b]” value was 1.78. In the data set with Tetranychus urticae, the “efficacy (spider mites killed)” value turned out to be 100%.
The like results for `Cc1cc(F)c(N2C(=O)CN(C(=O)N3CCS(=O)(=O)CC3)C2=O)cc1[S+]([O-])CC(F)(F)F` (stereo not drawn) [compound 134] were, in that order, 1.66, 1.69 and 90%.
